The text below walks through data of patent US5789434A, “Derivatives of substituted 4-biarylbutyric acid as matrix metalloprotease inhibitors” (priority 1995, dated 1998).

Common to all, as to format: biochemical
One assay concerns the target T1, MMP-9 (Homo sapiens, UniProt P14780).
T1 construct: from tissue; host or cells: human polymorphonuclear leukocytes (PMN) from whole blood (New York Blood Center), PMA-stimulated supernatant
The assay is described as follows: Automated MMP Profiling Assay, MMP-9 fluorogenic. As to conditions: for IC50: 96-well automated, P218.

Another assay has as its target T2, MMP-3 (Homo sapiens, UniProt P08254).
T2 construct: Truncated Prostromelysin-257 was expressed in a soluble form in E.coli; made in house; host or cells: E. coli
The assay is described as follows: Automated MMP Profiling Assay, MMP-3 fluorogenic. As to conditions: for IC50: 96-well automated, P218. From the text:
This assay with each invention compound was run with the three enzymes MMP-3, MMP-9 and MMP-2 in parallel as adapted for a 96-well microtitre plate using a Hamilton A® workstation.

For the next assay, the target named is T3, MMP-2 (Homo sapiens, UniProt P08253).
T3 sequence (P08253 110-660): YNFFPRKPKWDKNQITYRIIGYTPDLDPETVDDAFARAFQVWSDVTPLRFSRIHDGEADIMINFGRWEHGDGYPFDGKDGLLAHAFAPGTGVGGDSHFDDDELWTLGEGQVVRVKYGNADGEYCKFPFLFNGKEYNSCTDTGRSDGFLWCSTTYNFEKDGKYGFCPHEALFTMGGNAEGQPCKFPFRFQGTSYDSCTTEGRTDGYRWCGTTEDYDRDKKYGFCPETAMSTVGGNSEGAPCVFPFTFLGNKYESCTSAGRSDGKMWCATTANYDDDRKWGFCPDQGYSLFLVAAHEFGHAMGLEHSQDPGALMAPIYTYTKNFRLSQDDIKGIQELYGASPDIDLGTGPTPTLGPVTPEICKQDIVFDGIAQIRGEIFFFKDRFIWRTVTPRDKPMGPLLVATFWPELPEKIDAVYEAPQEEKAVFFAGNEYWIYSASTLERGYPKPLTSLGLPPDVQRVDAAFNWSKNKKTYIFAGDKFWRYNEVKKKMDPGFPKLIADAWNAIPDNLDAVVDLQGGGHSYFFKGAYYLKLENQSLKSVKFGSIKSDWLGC
Put plainly: Automated MMP Profiling Assay, MMP-2 fluorogenic. The note with it: for IC50: 96-well automated, P218, read-out: MMP-2 Fluorogenic IC50 (profiling).

T2 sequence (P08254 100-274 limits assumed): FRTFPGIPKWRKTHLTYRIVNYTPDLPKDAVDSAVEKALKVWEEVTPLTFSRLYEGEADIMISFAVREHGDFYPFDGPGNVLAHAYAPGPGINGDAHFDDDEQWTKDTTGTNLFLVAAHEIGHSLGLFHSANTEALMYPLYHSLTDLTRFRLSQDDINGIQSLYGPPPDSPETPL
T1 sequence (P14780 107-707 limits assumed): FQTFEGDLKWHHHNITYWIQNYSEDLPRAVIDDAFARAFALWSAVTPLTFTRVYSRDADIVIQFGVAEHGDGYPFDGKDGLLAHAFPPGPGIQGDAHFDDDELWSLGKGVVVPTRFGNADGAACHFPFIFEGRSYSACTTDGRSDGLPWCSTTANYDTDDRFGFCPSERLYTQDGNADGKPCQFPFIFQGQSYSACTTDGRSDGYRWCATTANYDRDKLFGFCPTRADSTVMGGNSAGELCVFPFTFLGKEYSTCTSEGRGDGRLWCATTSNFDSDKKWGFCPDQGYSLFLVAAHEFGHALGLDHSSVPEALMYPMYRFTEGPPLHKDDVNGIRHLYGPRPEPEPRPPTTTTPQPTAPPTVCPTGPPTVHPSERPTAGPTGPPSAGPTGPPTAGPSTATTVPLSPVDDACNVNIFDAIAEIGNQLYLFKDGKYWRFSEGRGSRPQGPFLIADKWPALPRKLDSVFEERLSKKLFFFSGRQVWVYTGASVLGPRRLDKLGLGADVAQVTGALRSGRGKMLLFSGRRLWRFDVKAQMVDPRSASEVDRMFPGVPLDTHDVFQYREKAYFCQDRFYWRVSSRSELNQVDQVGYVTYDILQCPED

Turning to `O=C(O)[C@H]1[C@H](CN2C(=O)c3ccc([N+](=O)[O-])cc3C2=O)CC[C@@H]1C(=O)c1ccc(-c2ccc(Cl)cc2)cc1` (relative stereo) [Example 386, Cyclopentanecarboxylic acid, 2-[(4'-chloro[1,1'-biphenyl]-4-yl)carbonyl]-5-[(1,3-dihydro-5-nitro-1,3-dioxo-2H-isoindol-2-yl)methyl]-, (1α,2β,5β)-], the values for the 50% inhibitory concentration (IC50) at MMP-9, on MMP-3 and on MMP-2 were 0.97 nM, 8.34 nM and 11.7 nM, respectively.
For the compound `O=C(CC(CCCc1ccccc1)C(=O)O)c1ccc(-c2cccnc2)cc1` (stereo not drawn) [Example 70, Benzenepentanoic acid, α-[2-oxo-2-[4-(3-pyridinyl)phenyl]ethyl]-], the inhibition at 5 µM came out at 7% against MMP-9 and 44% against MMP-3. The IC50 at MMP-2 worked out at 1750 nM.
Turning to `O=C(CC(CCN1C(=O)c2cccc3cccc(c23)C1=O)C(=O)O)c1ccc(-c2ccc(Cl)cc2)cc1` (stereo not drawn) [Example 410, 1H-Benz[de]isoquinoline-2(3H)-butanoic acid, α-[2-(4'-chloro[1,1'-biphenyl]-4-yl)-2-oxoethyl]-1,3-dioxo-], the results for the IC50 against MMP-9, against MMP-3 and on MMP-2 were 44 nM, 104 nM and 80 nM, respectively.
`COc1ccc(COc2ccc(-c3ccc(C(=O)CC(CCCc4ccccc4)C(=O)O)cc3)cc2)cc1` (stereo not drawn) [Example 105, [1,1'-Biphenyl]-4-butanoic acid, 4'-[(4-methoxyphenyl)methoxy]-γ-oxo-α-(3-phenylpropyl)-] came in with an inhibition at 5 µM against MMP-9 of 37%. Further, the values for the IC50 against MMP-3 and on MMP-2 were 33 nM and 14 nM, respectively.
Take `O=C(CC(CCCc1ccccc1)C(=O)O)c1ccc(-c2ccc(OCC3CC3)cc2)cc1` (stereo not drawn) [Example 97, [1,1'-Biphenyl]-4-butanoic acid, 4'-(cyclopropylmethoxy)-γ-oxo-α-(3-phenylpropyl)-]: the figures for the IC50 on MMP-9, at MMP-3 and on MMP-2 were 229 nM, 153 nM and 48 nM, respectively.
`CCCCCOc1ccc(-c2ccc(C(=O)C[C@@H](CCCc3ccccc3)C(=O)O)cc2)cc1` [Example 87, 4-[4-(4-pentyloxyphenyl)phenyl]-4-oxo-2R-(3-phenylpropyl)butanoic acid]: the figures for the inhibition at 5 µM at MMP-9, on MMP-3 and against MMP-2 (at 5 μM) were 0%, 8% and 40%, respectively.
For `CC(C)COC(=O)N1CC[C@H](C(=O)c2ccc(-c3ccc(Cl)cc3)cc2)[C@H]1C(=O)O` [Example 172, 1,2-PYrrolidinecarboxylic acid, 3-[(4'-chloro[1,1'-biphenyl]-4-yl)carbonyl]-, 1-(2-methylpropyl) ester, (2S-trans)-], the IC50 against MMP-9 amounted to 1930 nM; against MMP-3 it was 456 nM; on MMP-2 it was 175 nM.
Taken in the same sequence, the figures for `O=C(CC(CCNC(=O)c1ccccc1C(=O)O)C(=O)O)c1ccc(-c2ccc(Cl)cc2)cc1` (single isomer, unassigned) [Example 280, [1,1'-Biphenyl]-4-butanoic acid, α-[2-[(2-carboxybenzoyl)amino]ethyl]-4'-chloro-γ-oxo-] were 66 nM, 146 nM and 29 nM.
Taken in the same sequence, the figures for `CCCOc1ccc2c(c1)C(=O)N(CCC(CC(=O)c1ccc(-c3ccc(Cl)cc3)cc1)C(=O)O)C2=O` (stereo not drawn) [Example 406, 2H-Isoindole-2-butanoic acid, α-[2-(4'-chloro[1,1'-biphenyl]-4-yl)-2-oxoethyl]-1,3-dihydro-1,3-dioxo-5-propoxy-] were 1.7 nM, 10.3 nM and 17 nM.
Taken in the same sequence, the figures for `COc1ccccc1C(=O)OC[C@@H]1CC[C@H](C(=O)c2ccc(-c3ccc(Cl)cc3)cc2)[C@H]1C(=O)O` (relative stereo) [Example 381, Benzoic acid, 2-methoxy-, [2-carboxy-3-[(4'-chloro[1,1'-biphenyl]-4-yl)carbonyl]cyclopentyl]methyl ester, (1α,2β,3α)-] were 97 nM, 46 nM and 44 nM.
For `O=C(C[C@@H](CCCc1ccccc1)C(=O)O)c1ccc(-c2ccc(OCc3ccccc3)cc2)cc1` [Example 101, 4-[4-(4-benzyloxyphenyl)phenyl]-4-oxo-2R-(3-phenylpropyl)butanoic acid], the inhibition at 5 µM against MMP-9 worked out at 10%; against MMP-3, 45%. Also, the IC50 on MMP-2 came out at 3320 nM.
With `O=C(O)[C@H]1[C@H](CSc2ccccc2)CC[C@@H]1C(=O)c1ccc(-c2ccc(Cl)cc2)cc1` (relative stereo) [Example 373, Cyclopentanecarboxylic acid, 2-[(4'-chloro[1,1'-biphenyl]-4-yl)carbonyl]-5-[(phenylthio)methyl]-, (1α,2β,5β)-], the IC50 was found to be 113 nM on MMP-9, 56 nM against MMP-3 and 24 nM on MMP-2.
As for `CCCCNC(=O)c1cccc(CCC(CC(=O)c2ccc(-c3ccc(Cl)cc3)cc2)C(=O)O)c1` (stereo not drawn) [Example 150, [1,1'-Biphenyl]-4-butanoic acid, α-[2-[3-[(butylamino)carbonyl]phenyl]ethyl]-4'-chloro-γ-oxo-], the IC50 amounted to 957 nM at MMP-9, 371 nM on MMP-3 and 201 nM on MMP-2.
The like results for `O=C(Nc1ccc(-c2ccc(C(=O)CC(CCc3ccccc3)C(=O)O)cc2)cc1)OCc1ccccc1` (stereo not drawn) [Example 137, [1,1'-Biphenyl]-4-butanoic acid, γ-oxo-α-(2-phenylethyl)-4'-[[(phenylmethoxy)carbonyl]amino]-] were, in that order, 1400 nM, above 1250 nM and 548 nM.
Compound `CCCCCOc1ccc(-c2ccc(C(=O)CC(CCc3cccc(I)c3)C(=O)O)cc2)cc1` (stereo not drawn) [Example 162, [1,1'-Biphenyl]-4-butanoic acid, α-[2-(3-iodophenyl)ethyl]-γ-oxo-4'-(pentyloxy)-] had an inhibition at 5 µM against MMP-9 of 8%. The IC50 is 181 nM against MMP-3 and 22 nM at MMP-2.
As for `Cc1cccc(C)c1SCC(CC(=O)c1ccc(-c2ccc(Cl)cc2)cc1)C(=O)O` (stereo not drawn) [Example 433, [1,1'-Biphenyl]-4-butanoic acid, 4'-chloro-α-[[(2,6-dimethylphenyl)thio]methyl]-γ-oxo-], the IC50 is 130 nM on MMP-9, 103 nM at MMP-3 and 6.2 nM on MMP-2.
Taken in the same sequence, the figures for `CCCCNC(=O)c1ccccc1CCC(CC(=O)c1ccc(-c2ccc(Cl)cc2)cc1)C(=O)O` (stereo not drawn) [Example 147, [1,1'-Biphenyl]-4-butanoic acid, α-[2-[2-[(butylamino)carbonyl]phenyl]ethyl]-4'-chloro-γ-oxo-] were 676 nM, 266 nM and 73 nM.
The like results for `O=C(CC(CCCc1ccccc1)C(=O)O)c1ccc(-c2ccc(OCc3ccccc3)cc2)cc1` (stereo not drawn) [Example 99, 4-[4-(4-benzyloxyphenyl)phenyl]-4-oxo-2-(3-phenylpropyl)butanoic acid] were, in that order, 835 nM, 36 nM and 26 nM.
The like results for `O=C(OC[C@@H]1CC[C@H](C(=O)c2ccc(-c3ccc(Cl)cc3)cc2)[C@H]1C(=O)O)c1ccccc1` (relative stereo) [Example 367] were, in that order, 38 nM, 44 nM and 37 nM.
